This experiment concerns the target human TPH1 (Homo sapiens (Human), UniProt P17752). Briefly: Biochemical in vitro assay using fluorescence readout (TPH1 inhibition).
Setting [1] is: full length human TPH1, 40 μM L-tryptophan, 15° C., 60 minutes, fluorescence at 540 nm, mean if determined several times.
Setting [2] is: human TPH1, fluorescence readout.

Chain of human TPH1 (P17752 whole entry): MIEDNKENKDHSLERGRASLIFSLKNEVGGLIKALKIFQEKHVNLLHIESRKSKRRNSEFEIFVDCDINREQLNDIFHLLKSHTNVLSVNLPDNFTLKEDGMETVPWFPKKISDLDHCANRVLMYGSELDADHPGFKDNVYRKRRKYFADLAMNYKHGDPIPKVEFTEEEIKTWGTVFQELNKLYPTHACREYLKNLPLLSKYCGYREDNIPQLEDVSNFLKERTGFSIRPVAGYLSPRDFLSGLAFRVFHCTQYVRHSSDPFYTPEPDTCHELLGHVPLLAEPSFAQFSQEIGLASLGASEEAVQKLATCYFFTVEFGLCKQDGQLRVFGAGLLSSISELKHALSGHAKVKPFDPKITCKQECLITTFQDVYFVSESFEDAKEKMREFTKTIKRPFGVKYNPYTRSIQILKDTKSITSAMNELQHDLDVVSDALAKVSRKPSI

Consider `Cc1nn2c3c(nc2s1)CCN(C(=O)COc1ccc(N2CCC(F)(F)C2)nc1Cl)C3c1ccc(Cl)cc1F` (stereo not drawn) [Example 1.4.37, 1-(5-(4-Chloro-2-fluorophenyl)-2-methyl-7,8-dihydro-[1,3,4]thiadiazolo[2′,3′:2,3]imidazo[4,5-c]pyridin-6(5H)-yl)-2-((2-chloro-6-(3,3-difluoropyrrolidin-1-yl)pyridin-3-yl)oxy)ethanone], for which, under setting [1], the IC50 was found to be 3 nM. Turning to `CNC(=O)c1ccc(OCC(=O)N2CCc3nc4sc(C)nn4c3C2c2ncccc2F)c(Cl)n1` (stereo not drawn) [Example 1.35.3, 6-chloro-5-(2-(5-(3-fluoropyridin-2-yl)-2-methyl-7,8-dihydro-[1,3,4]thiadiazolo[2′,3′:2,3]imidazo[4,5-c]pyridin-6(5H)-yl)-2-oxoethoxy)-N-methylpicolinamide], the midpoint of inhibition under setting [2], the IC50, lay at 29 nM. For the compound `Cc1nn2c3c(nc2s1)CCN(C(=O)COc1ccc(C(F)(F)F)nc1Cl)C3c1ncc(C2CC2)cc1F` (stereo not drawn) [Example 1.14.3, 2-((2-chloro-6-(trifluoromethyl)pyridin-3-yl)oxy)-1-(5-(5-cyclopropyl-3-fluoropyridin-2-yl)-2-methyl-7,8-dihydro-[1,3,4]thiadiazolo[2′,3′:2,3]imidazo[4,5-c]pyridin-6(5H)-yl)ethanone], the IC50 under setting [2] was 17 nM. On to `CNC(=O)c1ccc(OCC(=O)N2CCc3nc4sc(C)nn4c3C2c2ncc(C(=O)N(C)C)s2)c(Cl)n1` (stereo not drawn) [Example 1.37.1, 2-(6-(2-((2-Chloro-6-(methylcarbamoyl)pyridin-3-yl)oxy)acetyl)-2-methyl-5,6,7,8-tetra-hydro-[1,3,4]thiadiazolo[2′,3′:2,3]imidazo[4,5-c]pyridin-5-yl)-N,N-dimethylthiazole-5-carboxamide], for which inhibition under setting [1] was half-maximal at 176 nM (IC50). Turning to `Cc1nn2c3c(nc2s1)CCN(C(=O)COc1cc(F)c(I)nc1Cl)C3c1ncc(C2CC2)cc1F` (stereo not drawn) [Example 1.14.6, 2-((2-chloro-5-fluoro-6-iodopyridin-3-yl)oxy)-1-(5-(5-cyclopropyl-3-fluoropyridin-2-yl)-2-methyl-7,8-dihydro-[1,3,4]thiadiazolo[2′,3′:2,3]imidazo[4,5-c]pyridin-6(5H)-yl)ethanone], under setting [2], half-maximal inhibition (IC50) was put at 6 nM. `Cc1nn2c3c(nc2s1)CCN(C(=O)COc1ccc(C(=O)N(C)C)nc1Cl)C3c1ncc(C2CC2)cc1F` (stereo not drawn) [Example 1.14.8, 6-chloro-5-(2-(5-(5-cyclopropyl-3-fluoropyridin-2-yl)-2-methyl-7,8-dihydro-[1,3,4]thiadiazolo[2′,3′:2,3]imidazo[4,5-c]pyridin-6(5H)-yl)-2-oxoethoxy)-N,N-dimethylpicolinamide] returned an IC50 under setting [2] of 3 nM.

Compound `Cc1nn2c3c(nc2s1)CCN(C(=O)COc1ccc(C(=O)NC2CC2)nc1Cl)C3c1ccc(OCCO)cc1F` (stereo not drawn) [Example 1.84.1, 6-chloro-N-cyclopropyl-5-(2-(5-(2-fluoro-4-(2-hydroxyethoxy)phenyl)-2-methyl-7,8-dihydro-[1,3,4]thiadiazolo[2′,3′:2,3]imidazo[4,5-c]pyridin-6(5H)-yl)-2-oxoethoxy)picolinamide] returned an IC50 under setting [1] of 14 nM. Under setting [2], `Cc1ccccc1OCC(=O)N1CCc2nc3sccn3c2C1c1cccnc1F` (stereo not drawn) [Example 6.2.4, 1-(5-(2-fluoropyridin-3-yl)-7,8-dihydrothiazolo[2′,3′:2,3]-imidazo[4,5-c]pyridin-6(5H)-yl)-2-(o-tolyloxy)ethanone] registered an IC50 of 266 nM. Regarding `Cc1nn2c3c(nc2s1)CCN(C(=O)COc1ccc(NS(C)(=O)=O)nc1Cl)C3c1sccc1F` (stereo not drawn) [Example 1.23.4, N-(6-chloro-5-(2-(5-(3-fluorothiophen-2-yl)-2-methyl-7,8-dihydro-[1,3,4]thiadiazolo[2′,3′:2,3]imidazo[4,5-c]pyridin-6(5H)-yl)-2-oxoethoxy)pyridin-2-yl)methanesulfonamide], the IC50 under setting [2] was determined as 7 nM.

For the compound `Cc1nn2c3c(nc2s1)CCN(C(=O)COc1ccc(N2C[C@@H](C)C[C@H](C)C2)nc1Cl)C3c1ccc(Cl)cc1F` (stereo partly drawn) [Example 1.4.20, 1-(5-(4-Chloro-2-fluorophenyl)-2-methyl-7,8-dihydro-[1,3,4]thiadiazolo[2′,3′:2,3]imidazo[4,5-c]pyridin-6(5H)-yl)-2-((2-chloro-6-((3S,5S)-3,5-dimethylpipe-ridin-1-yl)pyridin-3-yl)oxy)ethanone], under setting [1], half-maximal inhibition (IC50) was put at 3 nM.

As to `Cc1nn2c3c(nc2s1)CCN(C(=O)COc1ccc(NS(C)(=O)=O)nc1Cl)C3c1sc(C(=O)N(C)C)cc1F` (stereo not drawn) [Example 1.24.9, 5-(6-(2-((2-chloro-6-(methylsulfonamido)pyridin-3-yl)oxy)acetyl)-2-methyl-5,6,7,8-tetrahydro-[1,3,4]thiadiazolo [2′,3′:2,3]imidazo[4,5-c]pyridin-5-yl)-4-fluoro-N,N-dimethylthiophene-2-carboxamide], it took 6 nM to reach half-maximal inhibition under setting [2] (IC50).

Under setting [2], `Cc1nn2c3c(nc2s1)CCN(C(=O)COc1ccc(S(N)(=O)=O)cc1C)C3c1sccc1F` (stereo not drawn) [Example 1.23.2, 4-(2-(5-(3-fluorothiophen-2-yl)-2-methyl-7,8-dihydro-[1,3,4]thiadiazolo[2′,3′:2,3]imidazo[4,5-c]pyridin-6(5H)-yl)-2-oxoethoxy)-3-methylbenzenesulfonamide] registered an IC50 of 89 nM. The same measure, in the same setting: under `Cc1nn2c3c(nc2s1)CCN(C(=O)COc1c(F)cc(N2CCOCC2)nc1Cl)C3c1ncc(C2CC2)cc1F` (stereo not drawn) [Example 1.14.12, 2-((2-chloro-4-fluoro-6-morpholinopyridin-3-yl)oxy)-1-(5-(5-cyclopropyl-3-fluoropyridin-2-yl)-2-methyl-7,8-dihydro-[1,3,4]thiadiazolo[2′,3′:2,3]imidazo[4,5-c]pyridin-6(5H)-yl)ethanone] stands 41 nM. Compound `Cc1cc(Cl)ccc1OCC(=O)N1CCc2nc3sccn3c2C1c1nc2ccccc2s1` (stereo not drawn) [Example 6.12.4, 1-(5-(benzo[d]thiazol-2-yl)-7,8-dihydrothiazolo-[2′,3′:2,3]imidazo[4,5-c]pyridin-6(5H)-yl)-2-(4-chloro-2-methylphenoxy)ethanone] showed an IC50 under setting [2] of 36 nM.

`Cc1nn2c3c(nc2s1)CCN(C(=O)COc1ccc(C(=O)N(C)C)nc1Cl)C3c1ccc(C2CC2)cc1F` (stereo not drawn) [Example 1.6.25, 6-chloro-5-(2-(5-(4-cyclopropyl-2-fluorophenyl)-2-methyl-7,8-dihydro-[1,3,4]thiadiazolo[2′,3′:2,3]imidazo[4,5-c]pyridin-6(5H)-yl)-2-oxoethoxy)-N,N-dimethylpicolinamide]: the IC50 under setting [2] is 4 nM.

For `CCc1ncccc1OCC(=O)N1CCc2nc3sc(C)nn3c2C1c1nc(-c2ccccc2)no1` (stereo not drawn) [Example 1.11.2, 2-((2-ethylpyridin-3-yl)oxy)-1-(2-methyl-5-(3-phenyl-1,2,4-oxadiazol-5-yl)-7,8-dihydro-[1,3,4]thiadiazolo[2′,3′:2,3]imidazo[4,5-c]pyridin-6(5H)-yl)ethanone], under setting [2], the IC50 was found to be 141 nM. `Cc1nn2c3c(nc2s1)CCN(C(=O)COc1ccc(N2CCCS2(=O)=O)nc1Cl)C3c1ccc(Cl)cc1F` (stereo not drawn) [Example 1.4.49, 1-(5-(4-chloro-2-fluorophenyl)-2-methyl-7,8-dihydro-[1,3,4]thiadiazolo[2′,3′:2,3]imidazo[4,5-c]pyridin-6(5H)-yl)-2-((2-chloro-6-(1,1-dioxidoisothiazolidin-2-yl)pyridin-3-yl)oxy)ethanone] had an IC50 under setting [2] of 9 nM. The same measure, in the same setting: the same measure for `CCc1nc(NS(C)(=O)=O)ccc1OCC(=O)N1CCc2nc3sc(C)nn3c2C1c1sc(C)nc1C` (stereo not drawn) [Example 1.68.7, N-(5-(2-(5-(2,4-dimethylthiazol-5-yl)-2-methyl-7,8-dihydro-[1,3,4]thiadiazolo[2′,3′:2,3]imidazo[4,5-c]-pyridin-6(5H)-yl)-2-oxoethoxy)-6-ethylpyridin-2-yl)methanesulfonamide]: 11 nM. `Cc1nn2c3c(nc2s1)CCN(C(=O)COc1ccc(N2CCOCC2)nc1Cl)C3c1cnc(N2CC(F)(F)C2)s1` (stereo not drawn) [Example 1.49.1, 2-((2-Chloro-6-morpholinopyridin-3-yl)oxy)-1-(5-(2-(3,3-difluoro-azetidin-1-yl)thiazol-5-yl)-2-methyl-7,8-dihydro-[1,3,4]thiadiazolo[2′,3′:2,3]imidazo[4,5-c]pyridin-6(5H)-yl)-ethanone]: it took 15 nM to reach half-maximal inhibition under setting [1] (IC50).

For `Cc1nn2c3c(nc2s1)CCN(C(=O)COc1ccc(C(=O)N(C)C)nc1Cl)C3c1cnc(C(=O)N(C)C)s1` (stereo not drawn) [Example 1.34.2, 5-(6-(2-((2-chloro-6-(dimethylcarbamoyl)pyridin-3-yl)oxy)acetyl)-2-methyl-5,6,7,8-tetrahydro-[1,3,4]thiadiazolo [2′,3′:2,3]imidazo[4,5-c]pyridin-5-yl)-N,N-dimethylthiazole-2-carboxamide], the IC50 under setting [2] was 9 nM. Compound `Cc1nn2c3c(nc2s1)CCN(C(=O)COc1ccc(NS(=O)(=O)C2CC2)cc1Cl)C3c1ccc(Cl)cc1F` (stereo not drawn) [Example 1.4.30, N-(3-Chloro-4-(2-(5-(4-chloro-2-fluorophenyl)-2-methyl-7,8-dihydro-[1,3,4]thiadiazolo[2′,3′:2,3]imidazo[4,5-c]pyridin-6(5H)-yl)-2-oxoethoxy)phenyl)cyclo-propanesulfonamide] registered an IC50 under setting [1] of 10 nM.

The compound `Cc1cnc(C2c3c(nc4sc(C)nn34)CCN2C(=O)COc2ccc(C(F)(F)F)nc2Cl)c(F)c1` (stereo not drawn) [Example 1.31.5, 2-((2-chloro-6-(trifluoromethyl)pyridin-3-yl)oxy)-1-(5-(3-fluoro-5-methylpyridin-2-yl)-2-methyl-7,8-dihydro-[1,3,4]thiadiazolo[2′,3′:2,3]imidazo[4,5-c]pyridin-6(5H)-yl)ethanone] yielded an IC50 under setting [2] of 21 nM. In turn, `CNC(=O)c1ccc(OCC(=O)N2CCc3nc4sc(C)nn4c3C2c2ncc(Cl)cc2F)c(Cl)n1` (stereo not drawn) [Example 1.33.5, 6-chloro-5-(2-(5-(5-chloro-3-fluoropyridin-2-yl)-2-methyl-7,8-dihydro-[1,3,4]thiadiazolo[2′,3′:2,3]imidazo[4,5-c]pyridin-6(5H)-yl)-2-oxoethoxy)-N-methylpicolinamide] registered an IC50 under setting [2] of 6 nM.

On to `N#Cc1ccc(OCC(=O)N2CCc3nc4sc(C5CC5)nn4c3C2c2ccc(Cl)cc2F)c(Cl)c1` (stereo not drawn) [Example 4.1.2, 3-chloro-4-(2-(5-(4-chloro-2-fluorophenyl)-2-cyclopropyl-7,8-dihydro-[1,3,4]thiadiazolo-[2′,3′:2,3]imidazo[4,5-c]pyridin-6(5H)-yl)-2-oxoethoxy)benzonitrile], for which 23 nM corresponded to half-maximal inhibition under setting [2] (IC50).

Usually IC50 stands for the midpoint of a concentration-inhibition curve.

Source of the values: patent US9765092B2, “Tricyclic piperidine compounds” (ACTELION PHARMACEUTICALS LTD, priority 2013, dated 2017).
